In assay [1] the test system is human embryonic stem cell line H1. Kind of assay: FACS of protein markers after activin A treatment (Table IIC). In kind it is cell-based. The conditions noted are these: 5-day AA treatment. From the text: The level of expression of definitive endoderm markers was examined by PCR (FIG. 1), FACS (results summarized in Table II), and immunohistochemistry (FIG. 2).
CXCR4 positive cells were also highly positive for C-kit, EPCAM, CD99, and negative for CD9. The expression pattern for these markers was consistent among all three hES cell lines examined (Table IIB for H7 and Table IIC for H1). […] In parallel, almost 100% of the differentiated cells were […] (FIG. 2).
Adhered cells were removed from culture plates by five-minute incubation with TrypLE™ Express solution (Invitrogen, CA). Released cells were resuspended in human embryonic stem cell culture medium and recovered by centrifugation, followed by washing and resuspending the cells in a staining buffer consisting of 2% BSA, 0.05% sodium azide in PBS (Sigma, MO). As appropriate, the cells were Fc-receptor blocked for 15 minutes using a 0.1% γ-globulin (Sigma) solution. […] Controls included appropriate isotype matched antibodies, unstained cells, and cells stained only with secondary conjugated antibody. All incubations with antibodies were performed for 30 mins at 4° C. after which the cells were washed with the staining buffer. Samples that were stained with unconjugated primary antibodies were incubated for an additional 30 mins at 4° C. with secondary conjugated PE or —APC labeled antibodies. See Table I for a list of secondary antibodies used. Washed cells were pelleted and resuspended in the staining buffer, and the cell surface molecules were identified using a FACS Array (BD Biosciences) instrument, collecting at least 10,000 events.

For assay [2], the system named is H7P44 and H9P46 embryonic stem cells. Kind of assay: Definitive endoderm on […]: role of Wnt ligands (FACS CXCR4, real-time PCR). Format: cell-based, human. As to the method: In some of the cultures 20 ng/ml Wnt-3a (Catalog#1324-WN-002, R&D Systems, MN), 20 ng/ml Wnt-5a (Catalog#654-WN-010, R&D Systems, MN), 25 ng/ml Wnt-7a (Catalog#3008-WN-025, R&D Systems, MN), or 25 ng/ml Wnt-5b (Catalog#3006-WN-025, R&D Systems, MN) was added throughout the five day treatment. FIG. 24 depicts phase contrast images of H9P46 definitive endoderm culture in the presence of high concentration of (a) AA or (b) AA+20 ng/ml Wnt-3a. FIG. 25 depicts the expression of CXCR4 by FACS at day 5 for H7P44, and H9P46 lines cultured on […]™ (1:30 dilution) and exposed to the DE protocol+Wnt-3a (FIG. 25, panels b and d) and −Wnt-3a (FIG. 25, panels a and c).
For orientation: Real-time PCR tracks product formation cycle by cycle.

For assay [3], the system named is human embryonic stem cell line H1 at passage 55. Nature of the assay: Definitive endoderm on human serum coated plates (real-time PCR). Format: cell-based. To be noted: with activin A, vs activin A only. As to the method: Cultures of the human embryonic stem cell line H1 at passage 55 were grown and differentiated on human serum (Sigma, #H1388, MO) coated plates. 0.5 ml of human serum was added to each well of 6 well tissue culture treated dish, incubated for 1 hr at room temperature, and aspirated before adding human embryonic stem cells. […] These findings parallel our findings for human embryonic stem cells cultured on […]™ or human fibronectin coated plates.

As for “Activin A: activin A (a member of the TGFβ superfamily), R&D Systems; 'w/o wnt' in Table VII = 100 ng/ml Activin A without Wnt3a”, in assay [1], the “CXCR4+” value is given as 92.78%, the “CXCR4+/C-kit+” value was found to be 92.90%, the “CXCR4+/CD9+” value came to 7.03% and the “CXCR4+/CD99+” value is given as 88.78%. Also, the “CXCR4+/EPCAM” value in assay [1] was 87.99%.

For Wnt-3a, the “expression of CXCR4 (CD184) by FACS” value in assay [2] (20 ng/ml Wnt-3a in DE cultures, day 5, H7P44 and H9P46) is “robust expression”. Besides, the “expression of definitive endoderm markers (real-time PCR)” value in assay [2] (low serum+AA+/-Wnt ligands, H7 and H9, five days) is given as “significant up regulation”. In addition, in assay [3], the “expression of definitive endoderm markers” value is “Robust expression”.

The record behind these values is patent publication US9096832B2, “Differentiation of human embryonic stem cells” (LifeScan, Inc., priority 2007, dated 2015).
